Reference: US4442044A, “Process for preparing monoesters and diesters of N-alkyl substituted amino methyl phosphonic acid” (priority 1983, dated 1984)

What was measured:
Type in all cases: in vivo
Sugar Beet = test: post-emergent herbicidal activity, greenhouse; details: Table II, 4 WAT
How it was run: (§1)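 Post-emergence foliar spray at tabulated application rates, using aliquots of a 1.0% stock in acetone, THF or water plus ~0.4% emulsifier, applied to 2–3-week-old greenhouse plants. Plant injury was rated relative to controls roughly two and four weeks after treatment.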

Morningglory [1] = test: post-emergent herbicidal activity, greenhouse; details: 4 WAT
How it was run: as §1

Soybean = test: post-emergent herbicidal activity, greenhouse; details: Table II, 4 WAT
How it was run: as §1

Quackgrass [2] = test: post-emergent herbicidal activity, greenhouse; details: Table I, 4 WAT
How it was run: as §1

Rice = test: post-emergent herbicidal activity, greenhouse; details: Table II, 4 WAT
How it was run: as §1

Downy Brome [3] = test: post-emergent herbicidal activity, greenhouse; details: 4 WAT
How it was run: as §1

Cocklebur [4] = test: post-emergent herbicidal activity, greenhouse; details: 4 WAT
How it was run: as §1

Hemp Sesbania = test: post-emergent herbicidal activity, greenhouse; details: Table II, 4 WAT
How it was run: as §1

Lambsquarters [5] = test: post-emergent herbicidal activity, greenhouse; details: 4 WAT
How it was run: as §1

Smartweed [6] = test: post-emergent herbicidal activity, greenhouse; details: 4 WAT
How it was run: as §1

Wheat = test: post-emergent herbicidal activity, greenhouse; details: Table II, 4 WAT
How it was run: as §1

Panicum Spp = test: post-emergent herbicidal activity, greenhouse; details: Table II, 4 WAT
How it was run: as §1

Johnsongrass [7] = test: post-emergent herbicidal activity, greenhouse; details: Table I, 4 WAT
How it was run: as §1

Sorghum = test: post-emergent herbicidal activity, greenhouse; details: Table II, 4 WAT
How it was run: as §1

Velvetleaf [8] = test: post-emergent herbicidal activity, greenhouse; details: 4 WAT
How it was run: as §1

Yellow Nutsedge [9] = test: post-emergent herbicidal activity, greenhouse; details: Table I, 4 WAT
How it was run: as §1

Barnyardgrass [10] = test: post-emergent herbicidal activity, greenhouse; details: 4 WAT
How it was run: as §1

Wild Buckwheat = test: post-emergent herbicidal activity, greenhouse; details: Table II, 4 WAT
How it was run: as §1

Morningglory [11] = test: pre-emergent herbicidal activity, soil incorporation; details: Table III, 2 WAT, 11.2 kg/h
From the text: (§2) A good grade of top soil is placed in aluminum pans and compacted to a depth of 0.95 to 1.27 cm. from the top of each pan. A predetermined number of seeds or vegetative propagules of each of several plant species are placed on top of the soil in each pan and then pressed down. Herbicidal compositions prepared as in the previous example are applied by admixture with or incorporation in the top layer of soil.
(§3) In this method, the soil required to cover the seeds and propagules is weighed and admixed with a herbicidal composition containing a known amount of the active ingredient (compound of this invention). The pans are then filled with the admixture and leveled. Watering is carried out by permitting the soil in the pans to absorb moisture through apertures in the pan bottoms. The seed and propagule containing pans are placed on a wet sand bench and maintained for approximately two weeks under ordinary conditions of sunlight and watering. At the end of this period, the number of emerged plants of each species is noted and compared to an untreated control.
(§4) The pre-emergent herbicidal activity index used below is based upon average percent control of each species as follows: […]

Quackgrass [12] = test: as above; details: Table III, 2 WAT, 11.2 kg/h
From the text: as §2, §3, §4

Downy Brome [13] = test: as above; details: Table III, 2 WAT, 11.2 kg/h
From the text: as §2, §3, §4

Cocklebur [14] = test: as above; details: Table III, 2 WAT, 11.2 kg/h
From the text: as §2, §3, §4

Lambsquarters [15] = test: as above; details: Table III, 2 WAT, 11.2 kg/h
From the text: as §2, §3, §4

Smartweed [16] = test: as above; details: Table III, 2 WAT, 11.2 kg/h
From the text: as §2, §3, §4

Johnsongrass [17] = test: as above; details: Table III, 2 WAT, 11.2 kg/h
From the text: as §2, §3, §4

Velvetleaf [18] = test: as above; details: Table III, 2 WAT, 11.2 kg/h
From the text: as §2, §3, §4

Yellow Nutsedge [19] = test: as above; details: Table III, 2 WAT, 11.2 kg/h
From the text: as §2, §3, §4

Barnyardgrass [20] = test: as above; details: Table III, 2 WAT, 11.2 kg/h
From the text: as §2, §3, §4

CCOCCOC(=O)CNCP(=O)(O)OC(C)C#N (stereo not drawn) [Example 9, glycine, N-[[(1-cyanoethoxy)hydroxyphosphinyl]-methyl],2-ethoxyethyl ester]
post-emergent herbicidal activity index (Sugar Beet; 0.28 kg/h): 3 (75-99% control) | post-emergent herbicidal activity index (Sugar Beet; 1.12 kg/h): 2 (50-74% control) | post-emergent herbicidal activity index (Sugar Beet; 5.6 kg/h): 4 (100% control) | post-emergent herbicidal activity index (Morningglory [1]; Table I, 5.6 kg/h): 2 (50-74% control) | post-emergent herbicidal activity index (Morningglory [1]; Table I, 11.2 kg/h): 3 (75-99% control) | post-emergent herbicidal activity index (Morningglory [1]; Table II, 0.28 kg/h): 2 (50-74% control) | post-emergent herbicidal activity index (Morningglory [1]; Table II, 1.12 kg/h): 2 (50-74% control) | post-emergent herbicidal activity index (Morningglory [1]; Table II, 5.6 kg/h): 2 (50-74% control) | post-emergent herbicidal activity index (Soybean; 0.28 kg/h): 1 (25-49% control) | post-emergent herbicidal activity index (Soybean; 1.12 kg/h): 3 (75-99% control) | post-emergent herbicidal activity index (Soybean; 5.6 kg/h): 4 (100% control) | post-emergent herbicidal activity index (Quackgrass [2]; 5.6 kg/h): 4 (100% control) | post-emergent herbicidal activity index (Quackgrass [2]; 11.2 kg/h): 4 (100% control) | post-emergent herbicidal activity index (Rice; 0.28 kg/h): 1 (25-49% control) | post-emergent herbicidal activity index (Rice; 1.12 kg/h): 2 (50-74% control) | post-emergent herbicidal activity index (Rice; 5.6 kg/h): 3 (75-99% control) | post-emergent herbicidal activity index (Downy Brome [3]; Table I, 5.6 kg/h): 2 (50-74% control) | post-emergent herbicidal activity index (Downy Brome [3]; Table I, 11.2 kg/h): 3 (75-99% control) | post-emergent herbicidal activity index (Downy Brome [3]; Table II, 0.28 kg/h): 2 (50-74% control) | post-emergent herbicidal activity index (Downy Brome [3]; Table II, 1.12 kg/h): 1 (25-49% control) | post-emergent herbicidal activity index (Downy Brome [3]; Table II, 5.6 kg/h): 4 (100% control) | post-emergent herbicidal activity index (Cocklebur [4]; Table I, 5.6 kg/h): 3 (75-99% control) | post-emergent herbicidal activity index (Cocklebur [4]; Table I, 11.2 kg/h): 4 (100% control) | post-emergent herbicidal activity index (Cocklebur [4]; Table II, 0.28 kg/h): 1 (25-49% control) | post-emergent herbicidal activity index (Cocklebur [4]; Table II, 1.12 kg/h): 1 (25-49% control) | post-emergent herbicidal activity index (Cocklebur [4]; Table II, 5.6 kg/h): 4 (100% control) | post-emergent herbicidal activity index (Hemp Sesbania; 0.28 kg/h): 1 (25-49% control) | post-emergent herbicidal activity index (Hemp Sesbania; 1.12 kg/h): 1 (25-49% control) | post-emergent herbicidal activity index (Hemp Sesbania; 5.6 kg/h): 1 (25-49% control) | post-emergent herbicidal activity index (Lambsquarters [5]; Table I, 5.6 kg/h): 4 (100% control) | post-emergent herbicidal activity index (Lambsquarters [5]; Table I, 11.2 kg/h): 4 (100% control) | post-emergent herbicidal activity index (Lambsquarters [5]; Table II, 0.28 kg/h): 4 (100% control) | post-emergent herbicidal activity index (Lambsquarters [5]; Table II, 1.12 kg/h): 4 (100% control) | post-emergent herbicidal activity index (Lambsquarters [5]; Table II, 5.6 kg/h): 4 (100% control) | post-emergent herbicidal activity index (Smartweed [6]; Table I, 5.6 kg/h): 2 (50-74% control) | post-emergent herbicidal activity index (Smartweed [6]; Table I, 11.2 kg/h): 3 (75-99% control) | post-emergent herbicidal activity index (Smartweed [6]; Table II, 0.28 kg/h): 2 (50-74% control) | post-emergent herbicidal activity index (Smartweed [6]; Table II, 1.12 kg/h): 2 (50-74% control) | post-emergent herbicidal activity index (Smartweed [6]; Table II, 5.6 kg/h): 1 (25-49% control) | post-emergent herbicidal activity index (Wheat; 0.28 kg/h): 2 (50-74% control) | post-emergent herbicidal activity index (Wheat; 1.12 kg/h): 3 (75-99% control) | post-emergent herbicidal activity index (Wheat; 5.6 kg/h): 3 (75-99% control) | post-emergent herbicidal activity index (Panicum Spp; 0.28 kg/h): 4 (100% control) | post-emergent herbicidal activity index (Panicum Spp; 1.12 kg/h): 4 (100% control) | post-emergent herbicidal activity index (Panicum Spp; 5.6 kg/h): 4 (100% control) | post-emergent herbicidal activity index (Johnsongrass [7]; 5.6 kg/h): 4 (100% control) | post-emergent herbicidal activity index (Johnsongrass [7]; 11.2 kg/h): 4 (100% control) | post-emergent herbicidal activity index (Sorghum; 0.28 kg/h): 2 (50-74% control) | post-emergent herbicidal activity index (Sorghum; 1.12 kg/h): 1 (25-49% control) | post-emergent herbicidal activity index (Sorghum; 5.6 kg/h): 3 (75-99% control) | post-emergent herbicidal activity index (Velvetleaf [8]; Table I, 5.6 kg/h): 3 (75-99% control) | post-emergent herbicidal activity index (Velvetleaf [8]; Table I, 11.2 kg/h): 4 (100% control) | post-emergent herbicidal activity index (Velvetleaf [8]; Table II, 0.28 kg/h): 1 (25-49% control) | post-emergent herbicidal activity index (Velvetleaf [8]; Table II, 1.12 kg/h): 3 (75-99% control) | post-emergent herbicidal activity index (Velvetleaf [8]; Table II, 5.6 kg/h): 3 (75-99% control) | post-emergent herbicidal activity index (Yellow Nutsedge [9]; 5.6 kg/h): 1 (25-49% control) | post-emergent herbicidal activity index (Yellow Nutsedge [9]; 11.2 kg/h): 3 (75-99% control) | post-emergent herbicidal activity index (Barnyardgrass [10]; Table I, 5.6 kg/h): 3 (75-99% control) | post-emergent herbicidal activity index (Barnyardgrass [10]; Table I, 11.2 kg/h): 3 (75-99% control) | post-emergent herbicidal activity index (Barnyardgrass [10]; Table II, 0.28 kg/h): 2 (50-74% control) | post-emergent herbicidal activity index (Barnyardgrass [10]; Table II, 1.12 kg/h): 3 (75-99% control) | post-emergent herbicidal activity index (Barnyardgrass [10]; Table II, 5.6 kg/h): 3 (75-99% control) | post-emergent herbicidal activity index (Wild Buckwheat; 0.28 kg/h): 1 (25-49% control) | post-emergent herbicidal activity index (Wild Buckwheat; 1.12 kg/h): 0 (0-24% control) | post-emergent herbicidal activity index (Wild Buckwheat; 5.6 kg/h): 3 (75-99% control) | pre-emergent herbicidal activity index (Morningglory [11]): 0 (1-24% control) | pre-emergent herbicidal activity index (Quackgrass [12]): 0 (1-24% control) | pre-emergent herbicidal activity index (Downy Brome [13]): 0 (1-24% control) | pre-emergent herbicidal activity index (Cocklebur [14]): 0 (1-24% control) | pre-emergent herbicidal activity index (Lambsquarters [15]): 0 (1-24% control) | pre-emergent herbicidal activity index (Smartweed [16]): 0 (1-24% control) | pre-emergent herbicidal activity index (Johnsongrass [17]): 0 (1-24% control) | pre-emergent herbicidal activity index (Velvetleaf [18]): 0 (1-24% control) | pre-emergent herbicidal activity index (Yellow Nutsedge [19]): 1 (25-49% control) | pre-emergent herbicidal activity index (Barnyardgrass [20]): 0 (1-24% control)
